In patent US20240180887A1, “USE OF PPAR(gamma) AGONISTS OR MPC INHIBITORS FOR TREATING PRIMARY, INNATE DISEASES OF THE CARDIAC MUSCLE (CARDIOMYOPATHIES)” (PREVENTAGE THERAPEUTICS GMBH, priority 2021, published 2024):
“Also recorded” adds a separate entry of the source.

What was measured:
[1] = tested on: HCM mice (αMHC^719/+); experiment: Histopathology of left ventricular myocardium, Masson's trichrome (myocardial fibrosis), experimental setup A; type: in vivo, mouse
From the text: FIG. 6 Histopathology of the left ventricular myocardium of wild-type (WT) and HCM mice (αMHC^719/+) with and without treatment with pioglitazone (PIO) after 6 weeks; myocardial fibrosis appears in medium gray in the Masson's trichrome-stained histological sections. […] HCM mice show massive myocardial fibrosis (white arrows in (C)).
In order to quantify myocardial fibrosis, the removed hearts were fixed in 4% paraformaldehyde, dehydrated, and placed in paraffin, as described above^37,42,43. 5-μm sections were stained with Masson's trichrome and hematoxylin-eosin. The extent of myocardial fibrosis was quantified by a digitized method by calculating the percentage of cardiac muscle portions stained blue with Masson's trichrome in relation to the overall stained cardiac muscle. Perivascular and intramurine structures, the endocardium, or trabeculas were excluded in the calculation of the percentage of fibrosis.

[2] = tested on: HCM mice (αMHC^719/+); experiment: Heart-to-body weight ratio ex vivo after organ removal; type: in vivo, mouse; conditions: αMHC^719/+ mice, pioglitazone 10 mg/kg of body weight/day orally, 6 weeks, vs untreated αMHC^719/+ mice, p=0.008
Experimental: The mice were weighed and euthanized to calculate the heart-to-body weight ratio. The thorax was opened quickly, and the heart was removed and washed twice in cold PBS solution. The large vessels and connective tissue were removed, the heart was swapped dry and weighed, and the heart and body weight of the mouse were determined.

[3] = tested on: Acta1, Col1a1, Col1a2, Cyba, Gdf15, Hif1a, Icam1, IL33, Mmp2, Nfkb1, Nox4, Nppa, Postn, Tgfb1, Tgfb2, Tgfb3; experiment: mRNA expression of pro-hypertrophic, pro-fibrotic and pro-inflammatory genes in left ventricular myocardium (RNA sequencing); type: in vivo, mouse; conditions: αMHC^719/+ mice treated with pioglitazone vs untreated, p<0.001
Experimental: FIG. 8 The mRNA expression of pro-hypertrophic, pro-fibrotic, and pro-inflammatory genes such as Acta1, Col1a1, Col1a2, Cyba, Gdf15, Hif1a, Icam1, IL33, Mmp2, Nfkb1, Nox4, Nppa, Postn, Tgfb1, Tgfb2, and Tgfb3 is increased in the left ventricular myocardium of αMHC^719/+ HCM mice (HET) compared to wild-type mice (WT) (HET/WT). […] Strand-specific, polyA-enriched RNA sequencing was carried out as described above^51. The RNA was isolated using the AllPrep RNA Kit (Qiagen). The RNA integrity number (RIN) was determined using the Agilent 2100 BioAnalyzer (RNA 6000 Nano Kit, Agilent). In order to prepare the library, 1 μg RNA was poly(A)-selected, fragmented, and reverse-transcribed with the Elute, Prime, Fragment Mix (Illumina). […] RNA libraries were tested for quality and quantity using the Agilent 2100 BioAnalyzer and the Quant-iT PicoGreen dsDNA Assay Kit (Life Technologies). […] The STAR Aligner (version 2.4.2a)^52 with modified parameter settings (--twopassMode=Basic) was used for the split-read alignment against the […] genome assembly hg19 (GRCh37) and the UCSC knownGene annotation. HTseq-count (version 0.6.0)^53 was used to quantify the number of reads mapped to annotated genes. FPKM values (fragments per kilobase of transcript per million fragments mapped) were calculated using custom scripts. […]

[4] = tested on: cardiac myosin; experiment: Mant-ATP assay of left ventricular cardiac myosins (DRX vs SRX state); type: in vivo, mouse; conditions: αMHC^719/+ mice treated with pioglitazone vs untreated αMHC^719/+ mice
From the text: FIG. 5 Examination of the percentages of left ventricular cardiac myosins in the DRX (disordered relaxation) compared to the SRX (super-relaxed) state using a fluorescent ATP analog. […] The treatment of the HCM mouse model with pioglitazone thus also has a positive effect on the functional properties of the left ventricular heart muscle tissue. The results of this Mant-ATP assay indicate that it was possible to prevent the changes in the biophysical properties of the myosins, which are described as being the cause of hypertrophic cardiomyopathy, in the mice treated with pioglitazone.
Cardiac myosin ATPase activity was measured by Mant-ATP assay, which examines cardiomyocyte contractility and relaxation indirectly by measuring the activity of cardiac myosin ATPase. For this purpose, the Mant-ATP assay (Roche) was applied in the left ventricular myocardium of the different mouse groups, which was shock-frosted in liquid nitrogen and stored in frozen state at −80° C. Mant-ATP is a fluorescent, […] ATP that binds the head of the cardiac myosin. The assay measures the release of Mant-ATP after addition of ATP^44,45.

[5] = tested on: αMHC^719/+ HCM mouse model; experiment: Preclinical αMHC^719/+ HCM mouse model, overall summary of results; type: in vivo; conditions: oral administration in the αMHC^719/+ HCM mouse model
Experimental: The examinations were carried out on an established HCM mouse model, in which an arginine-to-tryptophan mutation at position 719 of the heavy chain of the cardiac mouse alpha-myosin gene was effected by homologous recombination (referred to as αMHC^719/+)^38. Such genetically modified mice increasingly develop the typical pathognomonic disease characteristics of hypertrophic cardiomyopathy such as myocardial hypertrophy and fibrosis with increasing age. The phenotype of this genetically generated HCM mouse model thus simulates the phenotype of HCM patients affected^36,37,38. The manifestation of the disease can be accelerated by subcutaneous administration of the calcineurin inhibitor cyclosporin A (CsA)^9.
Between their 6th and 12th postnatal week, all mice were injected subcutaneously with cyclosporin A (CsA) to accelerate hypertrophic remodeling in the myocardium in the HCM mouse model^9. Half of the mice were treated with the PPARγ agonists rosiglitazone and pioglitazone from the group of thiazolidinediones between their 6th and 12th postnatal week. In their 12th postnatal week, they were subjected to in vivo transthoracic echocardiography. The animals were then euthanized for ex vivo examination (organ removal, histopathology, and determination of radical oxygen species, of mRNA and protein expression in the tissue) (see FIG. 10).D

[6] = tested on: radical oxygen species (ROS); experiment: Radical oxygen species (ROS) in left ventricular myocardium by electron paramagnetic resonance spectroscopy; type: in vivo, mouse; conditions: αMHC^719/+ mice treated with pioglitazone vs untreated HCM mice, 6 weeks, p=0.053
From the text: Reduction of oxidative stress: The treatment with PPARγ agonists leads to reduced expression of hypoxia-inducible factor 1-alpha, a major transcription factor in the redox signaling pathway. As a result, less radical oxygen species are produced in the left ventricular myocardium, thereby reducing cellular oxidative stress. A protective effect on the pathological remodeling of the cardiac muscle was observed.
Electron paramagnetic resonance (EPR) was applied as described in order to calculate the production of radical oxygen species (ROS) in the left ventricular myocardium^46-48. […] The analysis of ROS generation was carried out at 37° C. for 10 minutes with 20 scans in an Escan EPR spectrometer under temperature control (Noxygen) and the following parameters: microwave power 23.89 mW; center field 3459-3466 G; steep width 10 G, frequency 9.7690 GHz and modulation amplitude 2.93 G. ROS generation was calculated by means of linear regression and normalized to the cellular protein content.

## CCc1ccc(CCOc2ccc(CC3SC(=O)NC3=O)cc2)nc1 (racemic) [pioglitazone, (RS)-5-{p-[2-(5-ethyl-2-pyridyl)ethoxy]benzyl}-2,4-thiazolidinedione]
[1]; wild-type mice with treatment with pioglitazone, 6 weeks
  myocardial fibrosis in wild-type mice: hardly any fibrosis
[1]; αMHC^719/+ mice, pioglitazone 10 mg/kg of body weight/day orally, 6 weeks
  formation of myocardial fibrosis (histological sections): almost completely prevents the formation of myocardial fibrosis
[1]; αMHC^719/+ mice, pioglitazone 10 mg/kg/day orally vs untreated HCM mice, p=0.017
  fibrosis after semi-automated threshold detection of collagen (ImageJ): significantly less fibrosis
[2]
  development of myocardial hypertrophy (heart-to-body weight ratio ex vivo): completely inhibited
[3]
  overexpression of pro-hypertrophic, pro-fibrotic and pro-inflammatory genes (HET+PIO/HET): significantly reduced or completely prevented; also recorded: prevents
[4]
  percentages of left ventricular cardiac myosins in the DRX compared to the SRX state: significant shift towards the SRX state; also recorded: prevents the functional biophysical changes
[5]
  changes in biophysical properties in the heart muscle cell and onset of myocardial hypertrophy and fibrosis: largely prevents
[6]
  production of radical oxygen species in the left ventricular myocardium: significantly decreased
[6]; listed as poglitazone
  production of radical oxygen species in the left ventricular myocardium: significantly reduced
